Earlier results, collected in patent publication US20110313191A1, “Preparation of Pharmaceutical Salts of 3-0-(3',3'-Dimethylsuccinyl) Betulinic Acid” (Myrexis, Inc., priority 2005, published 2011).

Test system: HIV
Details: comparison with regioisomer 3-O-2′,2′-DSB; literature statement

EC50 of 3-O-3′,3′-DSB relative to that of 3-O-2′,2′-DSB: about four orders of magnitude lower
Structure (SMILES): C=C(C)[C@@H]1CC[C@]2(C(=O)O)CC[C@]3(C)[C@H](CC[C@@H]4[C@@]5(C)CC[C@H](OC(=O)CC(C)(C)C(=O)O)C(C)(C)[C@@H]5CC[C@]43C)[C@@H]12 [3-O-3′,3′-DSB, 3-O-(3′,3′-dimethylsuccinyl)betulinic acid]
